ChEMBL document CHEMBL1944626, “Design, synthesis and biological evaluation of N-phenylsulfonylnicotinamide derivatives as novel antitumor inhibitors” (Bioorg Med Chem, 2012)
Active and inactive are the calls of the source. No cut-off for these calls is given here.

What was measured:
MCF7 = test: Antiproliferative activity against human MCF7 cells after 48 hrs by MTT assay; assay type: functional, cell-based; settings: MCF7, 48 h
[1] = molecular target: T1, Epidermal growth factor receptor (Homo sapiens, UniProt P00533); test: Inhibition of autophosphorylation of recombinant His-tagged EGFR expressed in baculovirus infected Sf9 cells after 1 hr by DELFIA/time-resolved fluorimetry assay
[2] = molecular target: T1, Epidermal growth factor receptor; test: Inhibition of EGF-stimulated EGFR autophosphorylation in human MCF7 cells at >1.5 uM treated 1 hr before EGF challenge measured after 15 mins by Western immunoblot analysis; assay type: cell-based

T1 sequence (P00533 whole entry): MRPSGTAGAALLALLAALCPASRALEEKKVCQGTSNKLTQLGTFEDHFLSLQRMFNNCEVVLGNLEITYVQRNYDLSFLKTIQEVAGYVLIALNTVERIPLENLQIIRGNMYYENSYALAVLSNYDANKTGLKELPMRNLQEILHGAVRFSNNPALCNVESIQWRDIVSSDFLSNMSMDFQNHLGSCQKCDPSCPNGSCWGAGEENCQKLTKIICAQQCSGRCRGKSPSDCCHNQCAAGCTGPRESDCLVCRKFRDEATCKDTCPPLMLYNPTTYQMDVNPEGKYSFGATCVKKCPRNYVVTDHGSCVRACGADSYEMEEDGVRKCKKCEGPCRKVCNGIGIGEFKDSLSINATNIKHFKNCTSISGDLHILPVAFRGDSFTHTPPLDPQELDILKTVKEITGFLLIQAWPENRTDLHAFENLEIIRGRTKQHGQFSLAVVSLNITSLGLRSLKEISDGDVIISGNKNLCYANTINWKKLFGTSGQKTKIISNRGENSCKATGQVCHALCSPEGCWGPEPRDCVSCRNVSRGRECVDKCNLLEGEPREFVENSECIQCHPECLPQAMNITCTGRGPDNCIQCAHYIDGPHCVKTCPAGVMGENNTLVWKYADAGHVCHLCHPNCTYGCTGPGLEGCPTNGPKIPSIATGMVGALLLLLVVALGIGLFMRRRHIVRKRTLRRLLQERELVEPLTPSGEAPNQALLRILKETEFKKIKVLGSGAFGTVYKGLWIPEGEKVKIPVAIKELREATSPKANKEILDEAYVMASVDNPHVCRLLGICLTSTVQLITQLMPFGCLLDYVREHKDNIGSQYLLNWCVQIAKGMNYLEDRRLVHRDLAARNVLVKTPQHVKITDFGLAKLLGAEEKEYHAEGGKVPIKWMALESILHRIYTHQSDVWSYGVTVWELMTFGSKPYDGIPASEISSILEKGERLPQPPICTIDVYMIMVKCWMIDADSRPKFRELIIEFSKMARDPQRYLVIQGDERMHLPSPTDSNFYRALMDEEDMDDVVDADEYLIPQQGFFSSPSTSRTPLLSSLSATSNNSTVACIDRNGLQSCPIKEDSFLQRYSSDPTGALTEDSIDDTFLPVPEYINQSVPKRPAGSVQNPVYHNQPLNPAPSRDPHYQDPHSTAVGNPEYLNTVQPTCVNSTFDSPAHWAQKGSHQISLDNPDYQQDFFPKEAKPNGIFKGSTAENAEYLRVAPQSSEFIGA

Row | Compound | IC50 (MCF7) [µM] | IC50 [1] [µM] | inhibition [2]
1 | O=C(NS(=O)(=O)c1ccccc1)c1cccnc1 | 14.4 | > 30 | 
2 | Cc1ccc(S(=O)(=O)NC(=O)c2ccc(Cl)nc2)cc1 | 17.2 | > 30 | 
3 | Cc1ccc(S(=O)(=O)NC(=O)c2cccnc2Cl)cc1 | 12.5 | 27 | 
4 | Cc1ccc(S(=O)(=O)NC(=O)c2ccc(C)nc2Cl)cc1 | 8.52 | 15 | 
5 | Cc1ccc(C(=O)NS(=O)(=O)c2ccccc2)c(Cl)n1 | 13.4 | 21.6 | 
6 | O=C(NS(=O)(=O)c1ccc(Br)cc1)c1cccnc1Cl | 11.4 | 15.7 | 
7 | Cc1ccc(C(=O)NS(=O)(=O)c2ccc(Cl)cc2)c(Cl)n1 | 1.35 | 1.19 | 
8 | O=C(NS(=O)(=O)c1ccc(Cl)cc1)c1cccnc1Cl | 10.2 | 19.8 | 
9 | O=C(NS(=O)(=O)c1ccccc1)c1ccc(Cl)nc1 | 14.1 | > 30 | 
10 | Cc1ccc(C(=O)NS(=O)(=O)c2ccc(Br)cc2)c(Cl)n1 | 1.97 | 2.64 | 
11 | O=C(NS(=O)(=O)c1ccccc1)c1cccnc1Cl | 14 | > 30 | 

Results, then the molecule that gave them:

Row | IC50 (MCF7) [µM] | IC50 [1] [µM] | inhibition [2] | Compound
12 | 13 | 25.4 |  | O=C(NS(=O)(=O)c1ccc(Cl)cc1)c1cccnc1
13 | 12 | 24.8 |  | Cc1ccc(S(=O)(=O)NC(=O)c2cccnc2)cc1
14 | 9.05 | 29.1 |  | O=C(NS(=O)(=O)c1ccc(Br)cc1)c1ccc(Cl)nc1
15 | 0.07 | 0.09 | Active | O=C(NS(=O)(=O)c1ccc(Cl)cc1)c1cncc(Br)c1
16 | 16.8 | > 30 |  | O=C(NS(=O)(=O)c1ccc(F)cc1)c1ccc(Cl)nc1
17 | 12.5 | 28.7 |  | O=C(NS(=O)(=O)c1ccc(F)cc1)c1cccnc1Cl
18 | 0.34 | 2.08 |  | O=C(NS(=O)(=O)c1ccc(Br)cc1)c1cncc(Br)c1
19 | 9.37 | 12.1 |  | Cc1ccc(S(=O)(=O)NC(=O)c2cncc(Br)c2)cc1
20 | 16 | > 30 |  | O=C(NS(=O)(=O)c1ccc(F)cc1)c1cccnc1
21 | 14.7 | > 30 |  | O=C(NS(=O)(=O)c1ccc(Br)cc1)c1cccnc1
22 | 0.98 | 3.27 |  | O=C(NS(=O)(=O)c1ccc(F)cc1)c1cncc(Br)c1
23 | 8.07 | 18.1 |  | O=C(NS(=O)(=O)c1ccc(Cl)cc1)c1ccc(Cl)nc1
